{
  "source": "BigSolDB 2.1",
  "data": [
    {"smiles": "CCOC(=O)[C@@H](N)Cc1ccccc1.Cl", "values": [
      {"measurement": "solubility (mole fraction)", "setting": "in 1,4-dioxane, 288.15 K", "result": 0.0023},
      {"measurement": "solubility (mole fraction)", "setting": "in 1,4-dioxane, 293.15 K", "result": 0.00301},
      {"measurement": "solubility (mole fraction)", "setting": "in 1,4-dioxane, 298.15 K", "result": 0.0037},
      {"measurement": "solubility (mole fraction)", "setting": "in 1,4-dioxane, 303.15 K", "result": 0.00498},
      {"measurement": "solubility (mole fraction)", "setting": "in 1,4-dioxane, 308.15 K", "result": 0.00668},
      {"measurement": "solubility (mole fraction)", "setting": "in 1,4-dioxane, 313.15 K", "result": 0.00876},
      {"measurement": "solubility (mole fraction)", "setting": "in 1,4-dioxane, 318.15 K", "result": 0.0115},
      {"measurement": "solubility (mole fraction)", "setting": "in 1,4-dioxane, 323.15 K", "result": 0.0148},
      {"measurement": "solubility (mole fraction)", "setting": "in 2-butoxyethanol, 283.15 K", "result": 0.035},
      {"measurement": "solubility (mole fraction)", "setting": "in 2-butoxyethanol, 288.15 K", "result": 0.039},
      {"measurement": "solubility (mole fraction)", "setting": "in 2-butoxyethanol, 293.15 K", "result": 0.0435},
      {"measurement": "solubility (mole fraction)", "setting": "in 2-butoxyethanol, 298.15 K", "result": 0.0473},
      {"measurement": "solubility (mole fraction)", "setting": "in 2-butoxyethanol, 303.15 K", "result": 0.052},
      {"measurement": "solubility (mole fraction)", "setting": "in 2-butoxyethanol, 308.15 K", "result": 0.0575},
      {"measurement": "solubility (mole fraction)", "setting": "in 2-butoxyethanol, 313.15 K", "result": 0.0633},
      {"measurement": "solubility (mole fraction)", "setting": "in 2-butoxyethanol, 318.15 K", "result": 0.0695},
      {"measurement": "solubility (mole fraction)", "setting": "in 2-butoxyethanol, 323.15 K", "result": 0.076},
      {"measurement": "solubility (mole fraction)", "setting": "in 2-propoxyethanol, 283.15 K", "result": 0.042},
      {"measurement": "solubility (mole fraction)", "setting": "in 2-propoxyethanol, 288.15 K", "result": 0.0472},
      {"measurement": "solubility (mole fraction)", "setting": "in 2-propoxyethanol, 293.15 K", "result": 0.052},
      {"measurement": "solubility (mole fraction)", "setting": "in 2-propoxyethanol, 298.15 K", "result": 0.0557},
      {"measurement": "solubility (mole fraction)", "setting": "in 2-propoxyethanol, 303.15 K", "result": 0.0616},
      {"measurement": "solubility (mole fraction)", "setting": "in 2-propoxyethanol, 308.15 K", "result": 0.0675},
      {"measurement": "solubility (mole fraction)", "setting": "in 2-propoxyethanol, 313.15 K", "result": 0.0738},
      {"measurement": "solubility (mole fraction)", "setting": "in 2-propoxyethanol, 318.15 K", "result": 0.08},
      {"measurement": "solubility (mole fraction)", "setting": "in 2-propoxyethanol, 323.15 K", "result": 0.087},
      {"measurement": "solubility (mole fraction)", "setting": "in THF, 283.15 K", "result": 0.00079},
      {"measurement": "solubility (mole fraction)", "setting": "in THF, 288.15 K", "result": 0.00102},
      {"measurement": "solubility (mole fraction)", "setting": "in THF, 293.15 K", "result": 0.00127},
      {"measurement": "solubility (mole fraction)", "setting": "in THF, 298.15 K", "result": 0.0016},
      {"measurement": "solubility (mole fraction)", "setting": "in THF, 303.15 K", "result": 0.00204},
      {"measurement": "solubility (mole fraction)", "setting": "in THF, 308.15 K", "result": 0.00257},
      {"measurement": "solubility (mole fraction)", "setting": "in THF, 313.15 K", "result": 0.00316},
      {"measurement": "solubility (mole fraction)", "setting": "in THF, 318.15 K", "result": 0.00398},
      {"measurement": "solubility (mole fraction)", "setting": "in THF, 323.15 K", "result": 0.00491},
      {"measurement": "solubility (mole fraction)", "setting": "in isopropanol, 283.15 K", "result": 0.0074},
      {"measurement": "solubility (mole fraction)", "setting": "in isopropanol, 288.15 K", "result": 0.00934},
      {"measurement": "solubility (mole fraction)", "setting": "in isopropanol, 293.15 K", "result": 0.0117},
      {"measurement": "solubility (mole fraction)", "setting": "in isopropanol, 298.15 K", "result": 0.0147},
      {"measurement": "solubility (mole fraction)", "setting": "in isopropanol, 303.15 K", "result": 0.0189},
      {"measurement": "solubility (mole fraction)", "setting": "in isopropanol, 308.15 K", "result": 0.0227},
      {"measurement": "solubility (mole fraction)", "setting": "in isopropanol, 313.15 K", "result": 0.0278},
      {"measurement": "solubility (mole fraction)", "setting": "in isopropanol, 318.15 K", "result": 0.0337},
      {"measurement": "solubility (mole fraction)", "setting": "in isopropanol, 323.15 K", "result": 0.0413},
      {"measurement": "solubility (mole fraction)", "setting": "in n-butanol, 283.15 K", "result": 0.0176},
      {"measurement": "solubility (mole fraction)", "setting": "in n-butanol, 288.15 K", "result": 0.0218},
      {"measurement": "solubility (mole fraction)", "setting": "in n-butanol, 293.15 K", "result": 0.0262},
      {"measurement": "solubility (mole fraction)", "setting": "in n-butanol, 298.15 K", "result": 0.032},
      {"measurement": "solubility (mole fraction)", "setting": "in n-butanol, 303.15 K", "result": 0.0355},
      {"measurement": "solubility (mole fraction)", "setting": "in n-butanol, 308.15 K", "result": 0.0417},
      {"measurement": "solubility (mole fraction)", "setting": "in n-butanol, 313.15 K", "result": 0.0509},
      {"measurement": "solubility (mole fraction)", "setting": "in n-butanol, 318.15 K", "result": 0.0601},
      {"measurement": "solubility (mole fraction)", "setting": "in n-butanol, 323.15 K", "result": 0.0696},
      {"measurement": "solubility (mole fraction)", "setting": "in n-propanol, 283.15 K", "result": 0.0272},
      {"measurement": "solubility (mole fraction)", "setting": "in n-propanol, 288.15 K", "result": 0.0316},
      {"measurement": "solubility (mole fraction)", "setting": "in n-propanol, 293.15 K", "result": 0.0367},
      {"measurement": "solubility (mole fraction)", "setting": "in n-propanol, 298.15 K", "result": 0.0423},
      {"measurement": "solubility (mole fraction)", "setting": "in n-propanol, 303.15 K", "result": 0.0491},
      {"measurement": "solubility (mole fraction)", "setting": "in n-propanol, 308.15 K", "result": 0.0566},
      {"measurement": "solubility (mole fraction)", "setting": "in n-propanol, 313.15 K", "result": 0.0656},
      {"measurement": "solubility (mole fraction)", "setting": "in n-propanol, 318.15 K", "result": 0.0734},
      {"measurement": "solubility (mole fraction)", "setting": "in n-propanol, 323.15 K", "result": 0.0838}
    ]}
  ]
}
